The values below come from patent publication US11028090B2 (Dong Wha Pharm. Co., Ltd., priority 2017, dated 2021).

The assay has as its target BRD4 (BD1+BD2) bromodomain (Homo sapiens (Human), UniProt O60885). Put plainly: BRD4 binding inhibition (AlphaScreen, GST-BRD4 vs tetraacetylated histone H4 peptide). In outline: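 GST-BRD4 (BD1+BD2) and biotinylated tetraacetyl-histone H4 peptide, each at 100 nM in HEPES pH 7.4 buffer with BSA and DTT, were combined with compound. Glutathione acceptor and streptavidin donor beads were added, then incubated 30 min at room temperature in the dark. Read-out was AlphaScreen signal.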

The mark [1] stands for this setting: GST-BRD4 (BD1+BD2) / biotinylated acetyl-histone H4 (Lys5,8,12,16) peptide, read-out: IC50, BRD4 binding inhibition.
Where [2] appears, read: GST-BRD4 (BD1+BD2) vs biotinylated acetyl-histone H4 peptide, AlphaScreen, read-out: BRD4 IC50.

The structures appear in SMILES notation. pIC50: −log10 of the molar value. Where a name gives a salt, the structure may show the parent alone. Read-outs that look alike come from different tables or passages of the source. Where only a bound is given, the exact number is not on record here.

On to `CCNC(=O)NCCCCNc1nc2cc(OCCOC)ccc2n2c(C)nnc12` [Example 423, 1-ethyl-3-{4-[7-(2-methoxy-ethoxy)-1-methyl-[1,2,4]triazolo[4,3-a]quinoxaline-4-ylamino]-butyl}-urea], for which the negative-log IC50 (pIC50) under setting [1] is at least 7.30 and the pIC50 under setting [2] was 7.57. The corresponding values for `COc1ccc2c(c1)nc(NCCCCNC(=O)CC(C)C)c1nnc(C(C)C)n12` [Example 627] are at least 7.30 and 7.64. For `COCCOc1ccc2c(c1)nc(NCCCCNC(=O)SC(C)C)c1nnc(C)n12` [Example 428, {4-[7-(2-methoxy-ethoxy)-1-methyl-[1,2,4]triazolo[4,3-a]quinoxaline-4-ylamino]-butyl}-thiocarbamic acid-S-isopropylester], in that order: at least 8.00 and 8.40. Consider `COCCOc1ccc2c(c1)nc(NCCCCN)c1nnc(C)n12` [Example 364, N^1-[7-(2-methoxy-ethoxy)-1-methyl-[1,2,4]triazolo[4,3-a]quinoxaline-4-yl]-butane-1,4-diamine ditrifluoroacetic acid], for which the pIC50 under setting [2] was 7.01.

For `Cc1nnc2c(NCCCCNC(=O)c3ccc(Cl)c(Cl)c3)nc3ccccc3n12` [Example 16, 3,4-dichloro-N-[4-(1-methyl-[1,2,4]triazolo[4,3-a]quinoxaline-4-ylamino)-butyl]-benzamide], the pIC50 is, setting by setting: under setting [1], at least 7.30; under setting [2], 7.36.

For the compound `COc1ccc2c(nc(NCCCCN)c3nnc(C)n32)c1Cl` [Example 460, dihydrochloride], the pIC50 is, setting by setting: under setting [1], at least 7.30; under setting [2], 7.92. As for `Cc1nnc2c(NCCCCCC(=O)NCC(C)C)nc3ccccc3n12` [Example 662, 6-(1-methyl-[1,2,4]triazolo[4,3-a]quinoxaline-4-ylamino)-hexanoic acid isobutylamide], the pIC50 was at least 7.30 under setting [1] and 7.41 under setting [2]. For `COc1cc2nc(NCCCCNC(=O)NC3CCCCC3)c3nnc(C)n3c2cc1C(F)(F)F` [Example 482, 1-cyclohexyl-3-[4-(7-methoxy-1-methyl-8-trifluoromethyl-[1,2,4]triazolo[4,3-a]quinoxaline-4-ylamino)-butyl]-urea], in that order: at least 7.30 and 7.70.

In the case of `CCOC(=O)CC(=O)NCCCCNc1nc2cc(OC)ccc2n2c(C)nnc12` [Example 305, N-[4-(7-methoxy-1-methyl-[1,2,4]triazolo[4,3-a]quinoxaline-4-ylamino)-butyl]-malonamic acid ethylester], the pIC50 by setting is: under setting [1], at least 7.30; under setting [2], 7.39. With `Cc1nnc2c(NCCCCNC(=O)OC(C)(C)C)nc3cc(C(=O)c4ccccc4)ccc3n12` [Example 260, [4-(7-benzoyl-1-methyl-[1,2,4]triazolo[4,3-a]quinoxaline-4-ylamino)-butyl]-carbamic acid-tert-butylester], the pIC50 under setting [2] was 7.21.

`CC(=O)Nc1ccc2nc(NCCCCNC(=O)OC(C)(C)C)c3nnc(C)n3c2c1` [Example 546, [4-(8-acetamino-1-methyl-[1,2,4]triazolo[4,3-a]quinoxaline-4-ylamino)-butyl]-carbamic acid-tert-butylester]: the pIC50 under setting [1] is at least 7.30. Regarding `CCOC(=O)CC(=O)NCCCCNc1nc2cc(OCCOC)ccc2n2c(C)nnc12` [Example 394, N-{4-[7-(2-methoxy-ethoxy)-1-methyl-[1,2,4]triazolo[4,3-a]quinoxaline-4-ylamino]-butyl}-malonamic acid ethylester], the negative-log IC50 (pIC50) under setting [1] is at least 7.30 and the pIC50 under setting [2] was 7.47. Take `CC(=O)Nc1ccc2nc(NCCCCNC(=O)C(C)(C)C)c3nnc(C)n3c2c1` [Example 547, N-[4-(8-acetamino-1-methyl-[1,2,4]triazolo[4,3-a]quinoxaline-4-ylamino)-butyl]-2,2-dimethyl-propionamide]: the pIC50 under setting [1] is at least 7.30. For the compound `COCCOc1ccc2c(c1)nc(NCCCCNC(=O)[C@@H](NC(=O)CC(C)C)C(C)C)c1nnc(C)n12` [Example 401, (S)-N-{4-[7-(2-methoxy-ethoxy)-1-methyl-[1,2,4]triazolo[4,3-a]quinoxaline-4-ylamino]-butyl}-3-methyl-2-(3-methyl-butyrylamino)-butyramide], the pIC50 is at least 7.30 under setting [1] and 7.92 under setting [2]. As for `Cc1cccc(C)c1C(=O)NCCCCNc1nc2ccccc2n2c(C)nnc12` [Example 13, 2,6-dimethyl-N-[4-(1-methyl-[1,2,4]triazolo[4,3-a]quinoxaline-4-ylamino)-butyl]-benzamide], under setting [2], the pIC50 is 7.24.

Consider `Cc1nnc2c(NCCCCNC(=O)OC(C)(C)C)nc3cc(C(=O)NC(C)(C)C)ccc3n12` [Example 203, [4-(7-tert--butylcarbamoyl-1-methyl-[1,2,4]triazolo[4,3-a]quinoxaline-4-ylamino)-butyl]-carbamic acid-tert-butylester], for which the pIC50 by setting is: under setting [1], at least 7.30; under setting [2], 7.38. Regarding `COCCOc1ccc2c(c1)nc(NCCCCNC(=O)COC(C)=O)c1nnc(C)n12` [Example 386, acetic acid-{4-[7-(2-methoxy-ethoxy)-1-methyl-[1,2,4]triazolo[4,3-a]quinoxaline-4-ylamino]-butylcarbamoyl}-methylester], the pIC50 under setting [2] was 7.11. On the same count and under the same terms, under `Cc1nnc2c(NCCCCCC(=O)NC(C)C)nc3ccccc3n12` [Example 661, 6-(1-methyl-[1,2,4]triazolo[4,3-a]quinoxaline-4-ylamino)-hexanoic acid isopropylamide] stands 7.11. For the compound `COc1ccc2c(c1)nc(NCCCCNC(=O)[C@@H](C)O)c1nnc(C)n12` [Example 295, 2-(R)-hydroxy-N-[4-(7-methoxy-1-methyl-[1,2,4]triazolo[4,3-a]quinoxaline-4-ylamino)-butyl]-propaneamide], the pIC50 is at least 7.30 under setting [1] and 7.48 under setting [2]. The corresponding values for `COc1cc2nc(NCCCCNC(=O)[C@H](O)C(C)C)c3nnc(C)n3c2cc1OC` [Example 82, N-[4-(7,8-dimethoxy-1-methyl-[1,2,4]triazolo[4,3-a]quinoxaline-4-ylamino)-butyl]-2-(R)-hydroxy-3-methyl-butyramide] are at least 7.30 and 7.92. The corresponding values for `Cc1nnc2c(NCCCCN)nc3cc(OC(C)C)ccc3n12` [Example 448, N^1-(7-isopropoxy-1-methyl-[1,2,4]triazolo[4,3-a]quinoxaline-4-yl)-butane-1,4-diamine ditrifluoroacetic acid] are at least 8.00 and 8.30. The corresponding values for `Cc1nnc2c(NCCCCNC(=O)[C@H](O)C(C)C)nc3cc(OCCN4CCOCC4)ccc3n12` [Example 434, 2-(R)-hydroxy-N-{4-[7-(2-morpholine-4-yl-ethoxy)-1-methyl-[1,2,4]triazolo[4,3-a]quinoxaline-4-ylamino]-butyl}-3-methyl-butyramide] are at least 7.30 and 7.68. With `Cc1noc(C)c1-c1ccc2nc(NCCCCN)c3nnc(C)n3c2c1` [Example 579, N^1-[8-(3,5-dimethyl-isoxazol-4-yl)-1-methyl-[1,2,4]triazolo[4,3-a]quinoxaline-4-yl]-butane-1,4-diamine ditrifluoroacetic acid], the negative logarithm of the IC50 (pIC50) was at least 8.00 under setting [1] and 8.30 under setting [2]. As to `COc1cc(C)c2c(c1)nc(NCCCCN)c1nnc(C)n12` [Example 456, N^1-(7-methoxy-1,9-dimethyl-[1,2,4]triazolo[4,3-a]quinoxaline-4-yl)-butane-1,4-diamine ditrifluoroacetic acid], the pIC50 under setting [2] was 7.12. Take `CC(=O)Nc1ccc2nc(NCCCCNC(=O)c3ccccc3)c3nnc(C)n3c2c1` [Example 548, N-[4-(8-acetamino-1-methyl-[1,2,4]triazolo[4,3-a]quinoxaline-4-ylamino)-butyl]-benzamide]: the negative logarithm of the IC50 (pIC50) by setting is: under setting [1], at least 7.30; under setting [2], 7.35.

In the case of `Cc1nnc2c(NCCCCN)nc3cc(-c4nc5ccccc5n4C)ccc3n12` [Example 221, N^1-[1-methyl-7-(1-methyl-1H-benzoimidazole-2-yl)-[1,2,4]triazolo[4,3-a]quinoxaline-4-yl]-butane-1,4-diamine ditrifluoroacetic acid], under setting [2], the pIC50 is 7.21. Turning to `COc1cc(C)c2c(c1)nc(NCCCCNC(=O)OC(C)(C)C)c1nnc(C)n12` [Example 455, [4-(7-methoxy-1,9-dimethyl-[1,2,4]triazolo[4,3-a]quinoxaline-4-ylamino)-butyl]-carbamic acid-tert-butylester], the pIC50 is at least 7.30 under setting [1] and 7.51 under setting [2]. With `Cc1nnc2c(NCCCCN)nc3cc(OC(F)(F)F)ccc3n12` [Example 270, N^1-(1-methyl-7-trifluoromethoxy-[1,2,4]triazolo[4,3-a]quinoxaline-4-yl)-butane-1,4-diamine ditrifluoroacetic acid], the pIC50 under setting [2] was 7.07. For `COc1ccc2c(c1)nc(NCCCCNC(=O)[C@@H](OC)C(C)C)c1nnc(C)n12` [Example 301, 2-(S)-methoxy-N-[4-(7-methoxy-1-methyl-[1,2,4]triazolo[4,3-a]quinoxaline-4-ylamino)-butyl]-3-methyl-butyramide], the pIC50 under setting [1] was at least 7.30 and the pIC50 under setting [2] was 7.80. As to `Cc1nnc2c(NCCCCNC(=O)c3cccc(Cl)c3Cl)nc3ccccc3n12` [Example 17], the pIC50 under setting [2] is 7.29. Regarding `COc1ccc2c(c1)nc(NCCCCC(=O)NCc1ccccc1)c1nnc(C)n12` [Example 658], the pIC50 by setting is: under setting [1], at least 7.30; under setting [2], 7.59.

Take `Cc1noc(C)c1-c1ccc2nc(NCCCCNC(=O)OC(C)(C)C)c3nnc(C)n3c2c1` [Example 578, {4-[8-(3,5-dimethyl-isoxazol-4-yl)-1-methyl-[1,2,4]triazolo[4,3-a]quinoxaline-4-ylamino]-butyl}-carbamic acid-tert-butylester]: the pIC50 under setting [1] was at least 7.30 and the pIC50 under setting [2] is 7.52.

For orientation: pIC50 means the IC50 on a negative log10 scale, so that one unit is a factor of ten.
